Laboratory results from the NIST ThermoML archive (doi:10.1021/acs.jced.8b00979).
Numbers after ± are expanded uncertainties.

Assay: xn = mol fraction of the nth substance listed
Conditions: 100 kPa, Liquid; for viscosity: Capillary tube (Ostwald / Ubbelohde) method; for mass density: Vibrating tube method

CCC(C)CO (stereo not given) [2-methyl-1-butanol] + CCCC(C)O
Conditions | mass density [kg/m3] | viscosity [mPa·s]
288.15 K, x2 = 0 | 823.35 ± 0.8 | 6.439 ± 0.26
288.15 K, x2 = 0.1 | 822.37 ± 0.8 | 6.154 ± 0.25
288.15 K, x2 = 0.2 | 821.39 ± 0.8 | 5.978 ± 0.24
288.15 K, x2 = 0.301 | 820.41 ± 0.79 | 5.83 ± 0.23
288.15 K, x2 = 0.4 | 819.44 ± 0.79 | 5.687 ± 0.23
288.15 K, x2 = 0.5 | 818.45 ± 0.79 | 5.556 ± 0.22
288.15 K, x2 = 0.6 | 817.47 ± 0.79 | 5.435 ± 0.22
288.15 K, x2 = 0.7 | 816.47 ± 0.79 | 5.323 ± 0.21
288.15 K, x2 = 0.8 | 815.45 ± 0.79 | 5.232 ± 0.21
288.15 K, x2 = 0.9 | 814.4 ± 0.79 | 5.154 ± 0.21
293.15 K, x2 = 0 | 819.64 ± 0.79 | 5.3 ± 0.21
293.15 K, x2 = 0.1 | 818.65 ± 0.79 | 5.034 ± 0.2
293.15 K, x2 = 0.2 | 817.65 ± 0.79 | 4.881 ± 0.2
293.15 K, x2 = 0.301 | 816.65 ± 0.79 | 4.762 ± 0.19
293.15 K, x2 = 0.4 | 815.65 ± 0.79 | 4.649 ± 0.19
293.15 K, x2 = 0.5 | 814.64 ± 0.79 | 4.548 ± 0.18
293.15 K, x2 = 0.6 | 813.63 ± 0.79 | 4.459 ± 0.18
293.15 K, x2 = 0.7 | 812.6 ± 0.79 | 4.377 ± 0.18
293.15 K, x2 = 0.8 | 811.57 ± 0.79 | 4.314 ± 0.17
293.15 K, x2 = 0.9 | 810.5 ± 0.79 | 4.251 ± 0.17
298.15 K, x2 = 0 | 815.85 ± 0.79 | 4.501 ± 0.18
298.15 K, x2 = 0.1 | 814.84 ± 0.79 | 4.249 ± 0.17
298.15 K, x2 = 0.2 | 813.83 ± 0.79 | 4.106 ± 0.17
298.15 K, x2 = 0.301 | 812.81 ± 0.79 | 3.99 ± 0.16
298.15 K, x2 = 0.4 | 811.79 ± 0.79 | 3.882 ± 0.16
298.15 K, x2 = 0.5 | 810.75 ± 0.79 | 3.787 ± 0.15
298.15 K, x2 = 0.6 | 809.72 ± 0.79 | 3.703 ± 0.15
298.15 K, x2 = 0.7 | 808.68 ± 0.78 | 3.625 ± 0.15
298.15 K, x2 = 0.8 | 807.63 ± 0.78 | 3.564 ± 0.14
298.15 K, x2 = 0.9 | 806.54 ± 0.78 | 3.496 ± 0.14
303.15 K, x2 = 0 | 812.12 ± 0.79 | 3.825 ± 0.15
303.15 K, x2 = 0.1 | 811.09 ± 0.79 | 3.585 ± 0.14
303.15 K, x2 = 0.2 | 810.04 ± 0.79 | 3.46 ± 0.14
303.15 K, x2 = 0.301 | 808.98 ± 0.78 | 3.355 ± 0.14
303.15 K, x2 = 0.4 | 807.92 ± 0.78 | 3.253 ± 0.13
303.15 K, x2 = 0.5 | 806.85 ± 0.78 | 3.163 ± 0.13
303.15 K, x2 = 0.6 | 805.78 ± 0.78 | 3.093 ± 0.12
303.15 K, x2 = 0.7 | 804.7 ± 0.78 | 3.028 ± 0.12
303.15 K, x2 = 0.8 | 803.62 ± 0.78 | 2.973 ± 0.12
303.15 K, x2 = 0.9 | 802.49 ± 0.78 | 2.91 ± 0.12
308.15 K, x2 = 0 | 808.29 ± 0.78 | 3.265 ± 0.13
308.15 K, x2 = 0.1 | 807.23 ± 0.78 | 3.047 ± 0.12
308.15 K, x2 = 0.2 | 806.15 ± 0.78 | 2.928 ± 0.12
308.15 K, x2 = 0.301 | 805.06 ± 0.78 | 2.83 ± 0.11
308.15 K, x2 = 0.4 | 803.97 ± 0.78 | 2.735 ± 0.11
308.15 K, x2 = 0.5 | 802.86 ± 0.78 | 2.653 ± 0.11
308.15 K, x2 = 0.6 | 801.76 ± 0.78 | 2.589 ± 0.11
308.15 K, x2 = 0.7 | 800.64 ± 0.78 | 2.53 ± 0.1
308.15 K, x2 = 0.8 | 799.52 ± 0.78 | 2.482 ± 0.1
308.15 K, x2 = 0.9 | 798.36 ± 0.78 | 2.422 ± 0.098
313.15 K, x2 = 0 | 804.41 ± 0.78 | 2.783 ± 0.11
313.15 K, x2 = 0.1 | 803.33 ± 0.78 | 2.586 ± 0.11
313.15 K, x2 = 0.2 | 802.22 ± 0.78 | 2.481 ± 0.1
313.15 K, x2 = 0.301 | 801.08 ± 0.78 | 2.398 ± 0.097
313.15 K, x2 = 0.4 | 799.95 ± 0.78 | 2.317 ± 0.094
313.15 K, x2 = 0.5 | 798.81 ± 0.78 | 2.248 ± 0.091
313.15 K, x2 = 0.6 | 797.67 ± 0.77 | 2.196 ± 0.089
313.15 K, x2 = 0.7 | 796.51 ± 0.77 | 2.151 ± 0.087
313.15 K, x2 = 0.8 | 795.35 ± 0.77 | 2.112 ± 0.085
313.15 K, x2 = 0.9 | 794.14 ± 0.77 | 2.062 ± 0.083
318.15 K, x2 = 0 | 800.47 ± 0.78 | 2.379 ± 0.096
318.15 K, x2 = 0.1 | 799.36 ± 0.78 | 2.199 ± 0.089
318.15 K, x2 = 0.2 | 798.21 ± 0.77 | 2.11 ± 0.085
318.15 K, x2 = 0.301 | 797.03 ± 0.77 | 2.037 ± 0.082
318.15 K, x2 = 0.4 | 795.86 ± 0.77 | 1.968 ± 0.08
318.15 K, x2 = 0.5 | 794.68 ± 0.77 | 1.91 ± 0.077
318.15 K, x2 = 0.6 | 793.49 ± 0.77 | 1.869 ± 0.076
318.15 K, x2 = 0.7 | 792.29 ± 0.77 | 1.835 ± 0.074
318.15 K, x2 = 0.8 | 791.09 ± 0.77 | 1.805 ± 0.073
318.15 K, x2 = 0.9 | 789.84 ± 0.77 | 1.764 ± 0.071
323.15 K, x2 = 0 | 796.47 ± 0.77 | 2.06 ± 0.083
323.15 K, x2 = 0.1 | 795.33 ± 0.77 | 1.898 ± 0.077
323.15 K, x2 = 0.2 | 794.13 ± 0.77 | 1.817 ± 0.073
323.15 K, x2 = 0.301 | 792.91 ± 0.77 | 1.754 ± 0.071
323.15 K, x2 = 0.4 | 791.7 ± 0.77 | 1.696 ± 0.069
323.15 K, x2 = 0.5 | 790.47 ± 0.77 | 1.649 ± 0.067
323.15 K, x2 = 0.6 | 789.24 ± 0.77 | 1.618 ± 0.065
323.15 K, x2 = 0.7 | 788 ± 0.77 | 1.59 ± 0.064
323.15 K, x2 = 0.8 | 786.75 ± 0.77 | 1.56 ± 0.063
323.15 K, x2 = 0.9 | 785.47 ± 0.76 | 1.525 ± 0.062
328.15 K, x2 = 0 | 792.41 ± 0.77 | 1.787 ± 0.072
328.15 K, x2 = 0.1 | 791.24 ± 0.77 | 1.649 ± 0.067
328.15 K, x2 = 0.2 | 789.99 ± 0.77 | 1.578 ± 0.064
328.15 K, x2 = 0.301 | 788.72 ± 0.77 | 1.525 ± 0.062
328.15 K, x2 = 0.4 | 787.46 ± 0.77 | 1.476 ± 0.06
328.15 K, x2 = 0.5 | 786.19 ± 0.76 | 1.44 ± 0.058
328.15 K, x2 = 0.6 | 784.91 ± 0.76 | 1.418 ± 0.057
328.15 K, x2 = 0.7 | 783.62 ± 0.76 | 1.396 ± 0.056
328.15 K, x2 = 0.8 | 782.33 ± 0.76 | 1.371 ± 0.055
328.15 K, x2 = 0.9 | 781 ± 0.76 | 1.346 ± 0.054
